Data taken from US4001272A, “Herbicidal 2-fluoro-4-halo-phenyl-4,5,6,7-tetrahydro-2H-isoindole-1,3-diones” (E. I. Du Pont de Nemours and Company, priority 1974, dated 1977).

How the values were obtained:
Format in all cases: in vivo
[1] = tested on: foxtails (Setaria spp.); test: Test A: field test, percent weed control of foxtails; conditions: seven weeks after treatment
From the text: (§1) In test A, soybeans, peanuts, lima beans, green beans and squash were planted in a field infested with the following weed seeds: crabgrass (Digitaria sanquinalis), foxtails (Setaria spp.), barnyardgrass (Echinochloa crusgalli), pigweed (Amaranthus spp.), ragweed (Ambrosia artemisiifolia), velvetleaf (Abutilon theophrasti), purslane (Portulaca oleracea) and flower-of-an-hour (Hibiscus trionum). A 50% wettable powder formulation of 2-(4-chloro-2-fluorophenyl)-4,5,6,7-tetrahydro-2H-isoindole-1,3-dione was applied in the form of an aqueous suspension at rates of 0.125, 0.25, 0.5 and 1.0 kg/ha, each treatment replicated twice. The plots were rated for percent weed control and crop response seven weeks after treatment. Crop response was expressed on a scale of 0 = no injury to 10 = complete kill.

[2] = tested on: velvetleaf (Abutilon theophrasti); test: Test A: field test, percent weed control of velvetleaf; conditions: seven weeks after treatment
From the text: as §1

[3] = tested on: green beans; test: Test A: field test, crop response of green beans; conditions: seven weeks, 0 = no injury to 10 = complete kill
From the text: as §1

[4] = tested on: peanuts; test: Test A: field test, crop response of peanuts; conditions: seven weeks, 0 = no injury to 10 = complete kill
From the text: as §1

[5] = tested on: soybeans; test: Test A: field test, crop response of soybeans; conditions: seven weeks, 0 = no injury to 10 = complete kill
From the text: as §1

[6] = tested on: crabgrass (Digitaria sanquinalis); test: Test B: overall spray in carrot field after weed emergence, percent control of crabgrass; conditions: six weeks after treatment, 0.1% Tween 20
From the text: (§2) Test B involved a field sown to carrots and in which the following weed species emerged naturally: crabgrass (Digitaria sanquinalis), foxtails (Setaria spp.), barnyardgrass (Echinochloa crusgalli), pigweed (Amaranthus spp.), ragweed (Ambrosia artemisiifolia), velvetleaf (Abutilon theophrasti), smartweed (Polygonum spp.) and lambsquarters (Chenopodium album). Sixteen days after sowing, when all species of weeds had emerged, the plants were sprayed overall with a 50% wettable powder formulation of 2-(4-chloro-2-fluorophenyl)4,5,6,7-tetrahydro-2H-isoindole-1,3dione (Treatment I) in the form of an aqueous suspension, at rates of 0.5, 1.0, 2.0 and 4.0 kg/ha, and with 2-(4-chlorophenyl)-4,5,6,7-tetrahydro-2H-isoindole-1,3-dione (Treatment II) in the same form and at the same rates. The spray volume was 425 l/ha. The surfactant Tween 20* was added to all treatments in a concentration of 0.1% by weight. Six weeks after treatment, visual observations were made of percent weed control obtained and, for carrots, crop response.
(§3) *Tween 20 -- A trademark of ICI of America which is the reaction product of sorbitan monolaurate with an average of 20 moles of ethylene oxide.

[7] = tested on: ragweed (Ambrosia artemisiifolia); test: Test B: overall spray in carrot field after weed emergence, percent control of ragweed; conditions: six weeks after treatment, 0.1% Tween 20
From the text: as §2, §3

[8] = tested on: foxtail (Setaria spp.); test: Test C: preemergence weed control in rice, foxtail; conditions: 29 days after treatment
From the text: as §1
(§4) Test C concerned preemergence weed control in rice. The field selected contained seeds of the following weed species: crabgrass (Digitaria sanquinalis), foxtail (Setaria spp.), barnyardgrass (Echinochloa crusgalli), pigweed (Amaranthus spp.), ragweed (Ambrosia artemisiifolia), velvetleaf (Abutilon theophrasti), purslane (Portulaca oleracea) and flower-of-an-hour (Hibiscus trionum). Two varieties of rice, CSM-3 and Nato, were planted at depths of both 1 and 2 cm. In addition, rice seedlings of both varieties were transplanted into the field to be treated. Immediately thereafter, the plot was treated with an aqueous suspension of 2-(4-chloro-2-fluorophenyl)-4,5,6,7-tetrahydro-2H-isoindole-1,3-dione (Treatment I) at rates of 0.125 and 0.25 kg/ha, and an aqueous suspension of 2-(4-chlorophenyl)-4,5,6,7-tetrahydro-2H-isoindole-1,3dione (Treatment II) at rates of 0.25, 0.50, 1.00 and 2.00 kg/ha. The test chemicals had been formulated as 50% wettable powders. Overall spray volume was 540 l/ha. Ratings of percent weed control obtained and crop response were made 29 days after treatment, as described for test A. The ratings are summarized in the following Table III.

[9] = tested on: barnyardgrass (Echinochloa crusgalli); test: Test C: preemergence weed control in rice, barnyardgrass; conditions: 29 days after treatment
From the text: as §1, §4

[10] = tested on: purslane (Portulaca oleracea); test: Test C: preemergence weed control in rice, purslane; conditions: 29 days after treatment
From the text: as §1, §4

[11] = tested on: rice, variety CSM-3; test: Test C: crop response of rice CSM-3; conditions: 29 days, 0 = no injury to 10 = complete kill; for Crop Response, Rice CSM-3, 1 cm: planting depth 1 cm; for Crop Response, Rice CSM-3, 2 cm: planting depth 2 cm; for Crop Response, Rice CSM-3, T: transplanted
From the text: In test A, soybeans, peanuts, lima beans, green beans and squash were planted in a field infested with the following weed seeds: crabgrass (Digitaria sanquinalis), foxtails (Setaria spp.), barnyardgrass (Echinochloa crusgalli), pigweed (Amaranthus spp.), ragweed (Ambrosia artemisiifolia), velvetleaf (Abutilon theophrasti), purslane (Portulaca oleracea) and flower-of-an-hour (Hibiscus trionum). […] The plots were rated for percent weed control and crop response seven weeks after treatment. Crop response was expressed on a scale of 0 = no injury to 10 = complete kill.
Test C concerned preemergence weed control in rice. The field selected contained seeds of the following weed species: crabgrass (Digitaria sanquinalis), foxtail (Setaria spp.), barnyardgrass (Echinochloa crusgalli), pigweed (Amaranthus spp.), ragweed (Ambrosia artemisiifolia), velvetleaf (Abutilon theophrasti), purslane (Portulaca oleracea) and flower-of-an-hour (Hibiscus trionum). Two varieties of rice, CSM-3 and Nato, were planted at depths of both 1 and 2 cm. In addition, rice seedlings of both varieties were transplanted into the field to be treated. […] The test chemicals had been formulated as 50% wettable powders. Overall spray volume was 540 l/ha.

[12] = tested on: carrots; test: Test B: overall spray in carrot field after weed emergence, crop response of carrots; conditions: six weeks after treatment, 0.1% Tween 20
From the text: as §2, §3

O=C1C2=C(CCCC2)C(=O)N1c1ccc(Cl)cc1F [Treatment I, 2-(4-chloro-2-fluorophenyl)-4,5,6,7-tetrahydro-2H-isoindole-1,3-dione]
% Control, Foxtail ([1]; 0.125 kg/ha): 40%
% Control, Foxtail ([1]; 0.25 kg/ha): 82%
% Control, Foxtail ([1]; 0.50 kg/ha): 95%
% Control, Foxtail ([1]; 1.00 kg/ha): 99%
% Control, Velvetleaf ([2]; 0.125 kg/ha): 90%
% Control, Velvetleaf ([2]; 0.25 kg/ha): 99%
% Control, Velvetleaf ([2]; 0.50 kg/ha): 100%
% Control, Velvetleaf ([2]; 1.00 kg/ha): 100%
Crop Response, Green beans ([3]; 0.125 kg/ha): 2
Crop Response, Green beans ([3]; 0.25 kg/ha): 2.5
Crop Response, Green beans ([3]; 0.50 kg/ha): 8
Crop Response, Green beans ([3]; 1.00 kg/ha): 8.5
Crop Response, Peanuts ([4]; 0.125 kg/ha): 0
Crop Response, Peanuts ([4]; 0.25 kg/ha): 0
Crop Response, Peanuts ([4]; 0.50 kg/ha): 2
Crop Response, Peanuts ([4]; 1.00 kg/ha): 3.5
Crop Response, Soybeans ([5]; 0.125 kg/ha): 0
Crop Response, Soybeans ([5]; 0.25 kg/ha): 1.5
Crop Response, Soybeans ([5]; 0.50 kg/ha): 3
Crop Response, Soybeans ([5]; 1.00 kg/ha): 7.5
% Control, Crabgrass ([6]; 0.5 kg/ha): 60%
% Control, Crabgrass ([6]; 1.0 kg/ha): 85%
% Control, Crabgrass ([6]; 2.0 kg/ha): 90%
% Control, Crabgrass ([6]; 4.0 kg/ha): 100%
% Control, Ragweed ([7]; 0.5 kg/ha): 98%
% Control, Ragweed ([7]; 1.0 kg/ha): > 99%
% Control, Ragweed ([7]; 2.0 kg/ha): 100%
% Control, Ragweed ([7]; 4.0 kg/ha): 100%
% Control, Foxtail ([8]; 0.125 kg/ha): 96%
% Control, Foxtail ([8]; 0.25 kg/ha): 100%
% Control, Barnyardgrass ([9]; 0.125 kg/ha): 90%
% Control, Barnyardgrass ([9]; 0.25 kg/ha): 99%
% Control, Purslane ([10]; 0.125 kg/ha): 100%
% Control, Purslane ([10]; 0.25 kg/ha): 100%
Crop Response, Rice CSM-3, 1 cm ([11]; 0.125 kg/ha): 3
Crop Response, Rice CSM-3, 2 cm ([11]; 0.125 kg/ha): 0
Crop Response, Rice CSM-3, T ([11]; 0.125 kg/ha): 0
Crop Response, Rice CSM-3, 1 cm ([11]; 0.25 kg/ha): 5
Crop Response, Rice CSM-3, 2 cm ([11]; 0.25 kg/ha): 1
Crop Response, Rice CSM-3, T ([11]; 0.25 kg/ha): 0

O=C1C2=C(CCCC2)C(=O)N1c1ccc(Cl)cc1 [Treatment II, 2-(4-chlorophenyl)-4,5,6,7-tetrahydro-2H-isoindole-1,3-dione]
% Control, Crabgrass ([6]; 0.5 kg/ha): 0%
% Control, Crabgrass ([6]; 1.0 kg/ha): 20%
% Control, Crabgrass ([6]; 2.0 kg/ha): 40%
% Control, Crabgrass ([6]; 4.0 kg/ha): 60%
% Control, Ragweed ([7]; 0.5 kg/ha): 50%
% Control, Ragweed ([7]; 1.0 kg/ha): 70%
% Control, Ragweed ([7]; 2.0 kg/ha): 90%
% Control, Ragweed ([7]; 4.0 kg/ha): > 99%
Crop Response, Carrots ([12]; 0.5 kg/ha): 4
Crop Response, Carrots ([12]; 1.0 kg/ha): 4
Crop Response, Carrots ([12]; 2.0 kg/ha): 4
Crop Response, Carrots ([12]; 4.0 kg/ha): 4
% Control, Foxtail ([8]; 0.25 kg/ha): 99%
% Control, Foxtail ([8]; 0.50 kg/ha): 100%
% Control, Foxtail ([8]; 1.0 kg/ha): 100%
% Control, Foxtail ([8]; 2.0 kg/ha): 100%
% Control, Barnyardgrass ([9]; 0.25 kg/ha): 58%
% Control, Barnyardgrass ([9]; 0.50 kg/ha): 97%
% Control, Barnyardgrass ([9]; 1.0 kg/ha): 99%
% Control, Barnyardgrass ([9]; 2.0 kg/ha): 100%
% Control, Purslane ([10]; 0.25 kg/ha): 100%
% Control, Purslane ([10]; 0.50 kg/ha): 100%
% Control, Purslane ([10]; 1.0 kg/ha): 100%
% Control, Purslane ([10]; 2.0 kg/ha): 100%
Crop Response, Rice CSM-3, 1 cm ([11]; 0.25 kg/ha): 4
Crop Response, Rice CSM-3, 2 cm ([11]; 0.25 kg/ha): 1
Crop Response, Rice CSM-3, T ([11]; 0.25 kg/ha): 0
Crop Response, Rice CSM-3, 1 cm ([11]; 0.50 kg/ha): 5
Crop Response, Rice CSM-3, 2 cm ([11]; 0.50 kg/ha): 2
Crop Response, Rice CSM-3, T ([11]; 0.50 kg/ha): 0
Crop Response, Rice CSM-3, 1 cm ([11]; 1.0 kg/ha): 7
Crop Response, Rice CSM-3, 2 cm ([11]; 1.0 kg/ha): 4
Crop Response, Rice CSM-3, T ([11]; 1.0 kg/ha): 0
Crop Response, Rice CSM-3, 1 cm ([11]; 2.0 kg/ha): 10
Crop Response, Rice CSM-3, 2 cm ([11]; 2.0 kg/ha): 7
Crop Response, Rice CSM-3, T ([11]; 2.0 kg/ha): 1
